Blank lines part the entries; values can stand above or below the molecule they belong to.
Experiments:
Thioredoxin reductase 1 = Thioredoxin reductase 1 (Homo sapiens (Human), UniProt Q16881); test: Thioredoxin reductase 1 (TrxR1) inhibitory activity; type: biochemical; conditions: average of two readings; 1 hour incubation at room temperature
Description: Thioredoxin is known to influence melanogenesis substrates [Y Lu et al., Modulating skin colour: role of thioredoxin and glutathione systems in regulating melanogenesis, Bioscience Reports, 2021; 41 BSR20210427]. […] Test materials were prepared by dissolving 0.01 gm of each test material in 1 ml ethanol to make stock solutions. […] The plate was read at 412 nm for 30 minutes to determine the inhibition.

mushroom tyrosinase = test: In vitro tyrosinase inhibition assay (L-DOPA conversion); type: biochemical; conditions: for Tyrosinase enzyme activity (% of Control): 80 min, L-DOPA 5 mM; for Inhibition of tyrosinase activity (in words): particularly at the higher concentrations
Description: Louis, MO, catalog #K3125) was employed as the positive control/reference substance. […] [Biosci Biotechnol Biochem, 67:1587-1589, 2003]. […] The final concentration used in the assay was 16 U/well (80 U/ml). Tyrosinase substrate L-DOPA (Acros Organics, Fair Lawn, NJ) was used at 5 mM. Reactions were conducted in a 96 well format and were initiated by adding the enzyme to the reaction mix and allowed to react for 80 min. […] The increase of the melanin output was calculated using the formula: ΔM=[A450 nm(t=80 min.)+Tyrosinase]−[A450 nm(t=80 min.)−Tyrosinase] where ΔM is increase of melanin, A is absorbance for a given experimental condition, t is a time point and 450 nm is the wavelength used for the quantification of melanin and “-Tyrosinase” is the background reading of identical experimental conditions without the enzyme.

MITF gene expression = MITF gene expression validated by real-time quantitative PCR in EpiDermFT tissues; type: cell-based; conditions: versus water control
Description: As validation of the findings above a second analysis of the tissue samples was performed this time using cDNA prepared using High-Capacity RNA-to-cDNA™ Kit (Thermo Fisher Scientific). Expression of the applicable genes was measured by real-time quantitative PCR with the BioRad iCycler iQ Detection System using PCR primers from Realtimeprimers (Elkins Park, PA) and AzuraView GreenFast qPCR Blue Mix LR (Azura Genomics, Raynham, MA). Efficiency ΔΔCt method was used for quantification of results, after the normalization of gene expression to GAPD (a housekeeping gene).

NADPH Oxidase 4 (NOX-4) = NADPH Oxidase 4 (NOX-4) (Homo sapiens (Human), UniProt Q9NPH5); test: NADPH oxidase (NOX-4) inhibitory activity, NOX4 ELISA kit; type: biochemical
Description: A study was conducted on the direct impact of Zn di-(di-n-butyryl lysinate) (ZDBL), Ca di-(di-n-butyryl lysinate), and Na butyrate on NADPH Oxidase 4 (NOX-4) enzyme. In this study, 0.01 gram of sample was dissolved in 1 ml propanediol to make solution. For the analysis, a 1 to 2 serial dilution of the stock solution of the sample using buffer was made to determine the IC50 values. The analysis was done following NOX4 ELISA kit (My BioSource, Catalog #MBS2505108) protocol.

[1] = tested on: microphthalmia-associated transcription factor (MITF) gene expression; test: MITF gene expression, transcriptome analysis of treated EpiDermFT tissues; type: cell-based; conditions: EpiDermFT tissue, 3 μl of 100 μg/ml solution, 24 hours
Description: EpiDermFT tissues were obtained from MatTek and equilibrated overnight in the cell culture incubator. […] All stock solutions were prepared at 20 mg/ml in DMSO and further dilutions were made in sterile distilled water. The proposed dosage used was based on cytotoxicity data. Water was used as the negative control. The treated tissue samples were incubated for a period of 24 hours following which RNA was extracted and prepared for transcriptome analysis for assessing the impact, if any, on the gene expression of microphthalmia-associated transcription factor (MITF). Sequencing data were generated by Azenta Life Sciences (HiSeq 2×150 bp). Analyses were performed using raw FastQ files provided by Azenta.

B16-F1 melanocytes = test: Melanin synthesis in melanocytes, melanin colorimetric competitive ELISA; type: cell-based; conditions: for % Melanin Inhibition: 200 μg/ml, water control = 100; for Melanin-inhibitory activity (in words): colorimetric quantification, ZDBL at 200 μg/ml

Thioredoxin reductase 1, sequence (Q16881 151-649): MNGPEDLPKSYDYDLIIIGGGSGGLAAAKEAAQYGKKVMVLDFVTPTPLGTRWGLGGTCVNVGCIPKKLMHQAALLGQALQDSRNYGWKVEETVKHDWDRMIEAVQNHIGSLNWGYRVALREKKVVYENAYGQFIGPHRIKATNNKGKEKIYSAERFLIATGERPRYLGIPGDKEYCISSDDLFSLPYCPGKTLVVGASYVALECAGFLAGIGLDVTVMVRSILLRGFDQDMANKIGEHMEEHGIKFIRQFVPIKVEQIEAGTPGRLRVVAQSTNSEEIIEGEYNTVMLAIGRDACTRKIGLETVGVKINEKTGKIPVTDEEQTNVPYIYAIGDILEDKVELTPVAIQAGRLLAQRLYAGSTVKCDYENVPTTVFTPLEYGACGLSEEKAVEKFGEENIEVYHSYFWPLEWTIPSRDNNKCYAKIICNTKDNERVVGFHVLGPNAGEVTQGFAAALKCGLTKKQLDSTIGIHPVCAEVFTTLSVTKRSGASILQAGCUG

IC50 value, Thioredoxin Reductase 1 (Thioredoxin reductase 1): 4.53 µg/mL | Tyrosinase enzyme activity (% of Control) (mushroom tyrosinase; 10 μg/ml): 85 (p = 0.10) % of Control | Tyrosinase enzyme activity (% of Control) (mushroom tyrosinase; 50 μg/ml): 89 (p = 0.13) % of Control | Tyrosinase enzyme activity (% of Control) (mushroom tyrosinase; 200 μg/ml): 99 (p = 0.86) % of Control | Inhibition of tyrosinase activity (in words) (mushroom tyrosinase): ineffective | IC50 value, NADPH Oxidase (NOX-4) (NADPH Oxidase 4 (NOX-4)): 240 µg/mL
Compound: CCCC(=O)NCCCCC(NC(=O)CCC)C(=O)[O-].CCCC(=O)NCCCCC(NC(=O)CCC)C(=O)[O-].[Ca+2] (centres unmarked) [CDBL, calcium di-(di-n-butyryl lysinate)]
Comments (MITF gene expression by PCR) (MITF gene expression): No Effect | Fold change/mean FPKM = 2.2 (MITF gene expression) [1]: 0.41 | MITF gene expression effect (in words) ([1]; listed as Ca di-(di-n-butyryl lysinate) (CDBL)): No effect | MITF gene expression effect (in words) ([1]; listed as Ca di-n-butyryl lysinate): not significantly altered | % Melanin Inhibition (B16-F1 melanocytes; three days): 0% | Melanin-inhibitory activity (in words) (B16-F1 melanocytes): no significant effect

Compound: NCCCC[C@H](N)C(=O)[O-].NCCCC[C@H](N)C(=O)[O-].[Ca+2] [Ca lysinate (CLY), Ca lysinate]
Comments (MITF gene expression by PCR) (MITF gene expression): No Effect | Fold change/mean FPKM = 2.2 (MITF gene expression) [1]: −0.21 | MITF gene expression effect (in words) [1]: No effect | MITF gene expression effect (in words) ([1]; listed as Ca lysinate): not significantly altered

Compound: CCCCCCc1ccc(O)cc1O [Hexylresorcinol]
Melanin inhibition, positive control (B16-F1 melanocytes; 5 μg/ml, three days): *Hexylresorcinol (5 μg/ml) was used as a positive control: Melanin inhibition was found fo be 17% of control (p = 0.007) confirming the validation of the protocol.

Compound: O=c1cc(CO)occ1O [Kojic acid, kojic acid]
Tyrosinase enzyme activity (% of control), positive control (mushroom tyrosinase; 200 μM): *Kojic acid (200 μM) was used as a positive control: Tyrosinase enzyme activity was found to be 39% of control (p = 0.00) confirming the validation of the protocol.

Compound: NCCCC[C@H](N)C(=O)O [Lysine (LYS), Lysine]
Fold change/mean FPKM = 2.2 (MITF gene expression) [1]: 0.38 | MITF gene expression effect (in words) [1]: No effect | MITF gene expression effect (in words) ([1]; listed as lysine): not significantly altered

IC50 value, NADPH Oxidase (NOX-4) (NADPH Oxidase 4 (NOX-4)): 170 µg/mL
Compound: CCCC(=O)[O-].[Na+] [Na butyrate]

Compound: NCCCC[C@H](N)C(=O)[O-].NCCCC[C@H](N)C(=O)[O-].[Zn+2] [Zn lysinate (ZLY), Zn lysinate]
Tyrosinase enzyme activity (% of Control) (mushroom tyrosinase; 10 μg/ml): 80 (p = 0.02) % of Control | Tyrosinase enzyme activity (% of Control) (mushroom tyrosinase; 50 μg/ml): 90 (p = 0.95) % of Control | Tyrosinase enzyme activity (% of Control) (mushroom tyrosinase; 200 μg/ml): 90 (p = 0.23) % of Control | Inhibition of tyrosinase activity (in words) (mushroom tyrosinase): ineffective | Comments (MITF gene expression by PCR) (MITF gene expression): No Effect | Fold change/mean FPKM = 2.2 (MITF gene expression) [1]: 0.17 | MITF gene expression effect (in words) [1]: No effect | MITF gene expression effect (in words) ([1]; listed as Zn lysinate): not significantly altered | % Melanin Inhibition (B16-F1 melanocytes; three days): 0% | Melanin-inhibitory activity (in words) (B16-F1 melanocytes): no significant effect
